PubChem BioAssay (NCI)
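Results reflect a 48-hour exposure of cells in 96-well plates to compound at five concentrations. The concentration for full growth arrest is given as TGI.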

How the values were obtained:
Assay in all cases: NCI-60 cell line screen, 48 h
A498 renal = test system: A498 renal
A549 NSCLC = test system: A549 NSCLC
CCRF-CEM leukemia = test system: CCRF-CEM leukemia
DMS 273 small cell lung = test system: DMS 273 small cell lung
EKVX NSCLC = test system: EKVX NSCLC
HCT-116 colon = test system: HCT-116 colon
HL-60(TB) leukemia = test system: HL-60(TB) leukemia
HOP-62 NSCLC = test system: HOP-62 NSCLC
HOP-92 NSCLC = test system: HOP-92 NSCLC
HT29 colon = test system: HT29 colon
IGROV1 ovarian = test system: IGROV1 ovarian
KM12 colon = test system: KM12 colon
M14 melanoma = test system: M14 melanoma
M19-MEL melanoma = test system: M19-MEL melanoma
MOLT-4 leukemia = test system: MOLT-4 leukemia
NCI-H226 lung = test system: NCI-H226 lung
NCI-H460 lung = test system: NCI-H460 lung
NCI-H522 lung = test system: NCI-H522 lung
OVCAR-5 ovarian = test system: OVCAR-5 ovarian
OVCAR-8 ovarian = test system: OVCAR-8 ovarian
RXF 393 renal = test system: RXF 393 renal
SF-268 CNS = test system: SF-268 CNS
SF-295 CNS = test system: SF-295 CNS
SK-MEL-28 melanoma = test system: SK-MEL-28 melanoma
SK-OV-3 ovarian = test system: SK-OV-3 ovarian
SNB-19 CNS = test system: SNB-19 CNS
SNB-78 CNS = test system: SNB-78 CNS
SR leukemia = test system: SR leukemia
TK-10 renal = test system: TK-10 renal
U251 CNS = test system: U251 CNS
UACC-257 melanoma = test system: UACC-257 melanoma
UACC-62 melanoma = test system: UACC-62 melanoma
UO-31 renal = test system: UO-31 renal
786-0 renal = test system: 786-0 renal
ACHN renal = test system: ACHN renal
CAKI-1 renal = test system: CAKI-1 renal
COLO 205 colon = test system: COLO 205 colon
DLD-1 colon = test system: DLD-1 colon
DMS 114 small cell lung = test system: DMS 114 small cell lung
HCC-2998 colon = test system: HCC-2998 colon
HCT-15 colon = test system: HCT-15 colon
HOP-18 NSCLC = test system: HOP-18 NSCLC
KM20L2 colon = test system: KM20L2 colon
LXFL 529 NSCLC = test system: LXFL 529 NSCLC
MALME-3M melanoma = test system: MALME-3M melanoma
NCI-H23 lung = test system: NCI-H23 lung
OVCAR-3 ovarian = test system: OVCAR-3 ovarian
OVCAR-4 ovarian = test system: OVCAR-4 ovarian
SF-539 CNS = test system: SF-539 CNS
SK-MEL-2 melanoma = test system: SK-MEL-2 melanoma
SK-MEL-5 melanoma = test system: SK-MEL-5 melanoma
SN12C renal = test system: SN12C renal
SNB-75 CNS = test system: SNB-75 CNS
SW-620 colon = test system: SW-620 colon

SMILES: CCSc1c2ccccc2nc2c(OC)ccc(OC)c12
- TGI (A498 renal): 81.7 µM
- TGI (A549 NSCLC): > 100 µM
- TGI (CCRF-CEM leukemia): > 100 µM
- TGI (DMS 273 small cell lung): 47.9 µM
- TGI (EKVX NSCLC): > 100 µM
- TGI (HCT-116 colon): 37.9 µM
- TGI (HL-60(TB) leukemia): 52.9 µM
- TGI (HOP-62 NSCLC): 97.2 µM
- TGI (HOP-92 NSCLC): 56.5 µM
- TGI (HT29 colon): 63.4 µM
- TGI (IGROV1 ovarian): 63.4 µM
- TGI (KM12 colon): 63.5 µM
- TGI (M14 melanoma): 95.8 µM
- TGI (M19-MEL melanoma): 37.1 µM
- TGI (MOLT-4 leukemia): 73 µM
- TGI (NCI-H226 lung): 55.7 µM
- TGI (NCI-H460 lung): 41.7 µM
- TGI (NCI-H522 lung): > 100 µM
- TGI (OVCAR-5 ovarian): 97.1 µM
- TGI (OVCAR-8 ovarian): 44.9 µM
- TGI (RXF 393 renal): 33.2 µM
- TGI (SF-268 CNS): 55.6 µM
- TGI (SF-295 CNS): 66.2 µM
- TGI (SK-MEL-28 melanoma): 40 µM
- TGI (SK-OV-3 ovarian): 63.2 µM
- TGI (SNB-19 CNS): 72.4 µM
- TGI (SNB-78 CNS): 56.7 µM
- TGI (SR leukemia): 62.5 µM
- TGI (TK-10 renal): 85 µM
- TGI (U251 CNS): 44.9 µM
- TGI (UACC-257 melanoma): 42.8 µM
- TGI (UACC-62 melanoma): 37.9 µM
- TGI (UO-31 renal): 59.8 µM

SMILES: O=C(Cc1nc2ccccc2s1)C(=O)Nc1cccc(C(F)(F)F)c1
- TGI (786-0 renal): > 100 µM
- TGI (A498 renal): > 100 µM
- TGI (A549 NSCLC): > 100 µM
- TGI (ACHN renal): > 100 µM
- TGI (CAKI-1 renal): > 100 µM
- TGI (CCRF-CEM leukemia): > 100 µM
- TGI (COLO 205 colon): > 100 µM
- TGI (DLD-1 colon): > 100 µM
- TGI (DMS 114 small cell lung): > 100 µM
- TGI (DMS 273 small cell lung): > 100 µM
- TGI (EKVX NSCLC): > 100 µM
- TGI (HCC-2998 colon): > 100 µM
- TGI (HCT-116 colon): > 100 µM
- TGI (HCT-15 colon): > 100 µM
- TGI (HL-60(TB) leukemia): > 100 µM
- TGI (HOP-18 NSCLC): > 100 µM
- TGI (HOP-62 NSCLC): > 100 µM
- TGI (HOP-92 NSCLC): > 100 µM
- TGI (HT29 colon): > 100 µM
- TGI (IGROV1 ovarian): > 100 µM
- TGI (KM12 colon): > 100 µM
- TGI (KM20L2 colon): > 100 µM
- TGI (LXFL 529 NSCLC): > 100 µM
- TGI (M14 melanoma): > 100 µM
- TGI (M19-MEL melanoma): > 100 µM
- TGI (MALME-3M melanoma): > 100 µM
- TGI (MOLT-4 leukemia): > 100 µM
- TGI (NCI-H226 lung): > 100 µM
- TGI (NCI-H23 lung): > 100 µM
- TGI (NCI-H460 lung): > 100 µM
- TGI (NCI-H522 lung): > 100 µM
- TGI (OVCAR-3 ovarian): > 100 µM
- TGI (OVCAR-4 ovarian): > 100 µM
- TGI (OVCAR-8 ovarian): > 100 µM
- TGI (RXF 393 renal): > 100 µM
- TGI (SF-268 CNS): > 100 µM
- TGI (SF-295 CNS): > 100 µM
- TGI (SF-539 CNS): > 100 µM
- TGI (SK-MEL-2 melanoma): > 100 µM
- TGI (SK-MEL-28 melanoma): > 100 µM
- TGI (SK-MEL-5 melanoma): > 100 µM
- TGI (SK-OV-3 ovarian): > 100 µM
- TGI (SN12C renal): > 100 µM
- TGI (SNB-19 CNS): > 100 µM
- TGI (SNB-75 CNS): > 100 µM
- TGI (SNB-78 CNS): > 100 µM
- TGI (SR leukemia): > 100 µM
- TGI (SW-620 colon): > 100 µM
- TGI (TK-10 renal): > 100 µM
- TGI (U251 CNS): > 100 µM
- TGI (UACC-257 melanoma): > 100 µM
- TGI (UACC-62 melanoma): > 100 µM
- TGI (UO-31 renal): > 100 µM
